Source: patent publication US20070033677A1, “Plant sHSP gene bidirectional promoter and uses thereof” (National Taiwan University, priority 2005, published 2007)

How the values were obtained:
[1] = system: bidirectional promoter of SEQ ID NO:5; details: 5% ethanol treatment; control coleoptiles under 28° C.; FIG. 3B
Description: (§1) The coleoptile of a etiolated rice seedling was cut from embryonic root and positioned on the middle of a 10-cm Petri dish containing MS salts supplemented with 0.6% (w/v) agarose and 3% (w/v) sucrose. The mixture (in a 1:1 molar ratio) of a test DNA construct and a maize ubiquitin-luciferase internal control construct were coated onto the gold particles as follows: under continuous vortexing, the following were added in order to each […] of 3 mg gold particles (Shen et al., 1996): 5 μL of DNA (1 μg DNA), 10 μL of 2.5 M CaCl2, and 4 μL of 0.1 M spermidine (free-based, tissue-culture grade). Gold microcarriers (1.6-μm particle size, 30 mg) in a microcentrifuge tube were vortexed with […] 70% (v/v) ethanol for 3˜5 minutes and kept till precipitation for about 15 minutes. Then, after centrifuging for 5 seconds, the supernatant was discarded and washed three times with 1 ml of sterile de-ionized water. The gold particles were resuspended in 500 μL 50% (w/v) glycerol, and then dispensed in 50-μL aliquots (3 mg/50 μL) kept in −20° C. The gold particles coated with DNA were pelleted in an bench-top Eppendorf centrifuge at maximum speed for 5 seconds, discarded the supernatant, washed once with 70% (v/v) ethanol following by absolute ethanol, and resuspended in 20 μL absolute ethanol. […]

Oshsp18.0 promoter = experiment: Transient expression GUS activity assay, Oshsp18.0 promoter::GUS construct bombarded to rice coleoptiles; type: cell-based, Rice (Oryza sativa L. cv. Tainung No. 67); details: 5 mM Aze, 4 hours treatment; GUS normalized against luciferase internal control; FIG. 3A
Description: as §1

Oshsp17.3 promoter = experiment: Transient expression GUS activity assay, Oshsp17.3 promoter::GUS construct bombarded to rice coleoptiles; type: cell-based, Rice (Oryza sativa L. cv. Tainung No. 67); details: 5 mM Aze, 4 hours treatment; GUS normalized against luciferase internal control; FIG. 3A
Description: as §1

SMILES | expression of reporter gene (GUS staining) [1] | induction of promoter (normalized GUS activity) (Oshsp18.0 promoter) | induction of promoter (normalized GUS activity) (Oshsp17.3 promoter)
CCO [ethanol] | much more amount of reporter gene | – | –
O=C(O)C1CCN1 (stereo not drawn) [Aze] | – | at least 7 fold | at least 7 fold
